Earlier results in publication PMC9516332 (Frontiers in Oncology, 2022).
Like-named read-outs stand apart in the source and are kept apart here.

Columns and labels:
[1] = target: panel of 255 wild-type kinases (Homo sapiens, UniProt Q16512); conditions: kinase PKN1, 1 µmol/L single concentration, cited from earlier work
[2] = target: panel of 255 wild-type kinases (Homo sapiens, UniProt Q9H1R3); conditions: kinase skMLCK, 1 µmol/L single concentration, cited from earlier work
[3] = target: panel of 255 wild-type kinases (Homo sapiens, UniProt Q96SB4); conditions: kinase SRPK1, 1 µmol/L single concentration, cited from earlier work
[4] = target: panel of 255 wild-type kinases (Homo sapiens, UniProt P50613); conditions: CDK7/CycH/MAT1 kinase assay, 1 µmol/L single concentration, cited from earlier work
[5] = target: panel of 255 wild-type kinases (Homo sapiens, UniProt Q13555); conditions: CaMK2γ kinase assay, 1 µmol/L single concentration, cited from earlier work
[6] = target: T1, panel of 255 wild-type kinases (Homo sapiens, UniProt Q13043); conditions: MST1, 1 µmol/L single concentration, cited from earlier work
T1 sequence (Q13043 1-487): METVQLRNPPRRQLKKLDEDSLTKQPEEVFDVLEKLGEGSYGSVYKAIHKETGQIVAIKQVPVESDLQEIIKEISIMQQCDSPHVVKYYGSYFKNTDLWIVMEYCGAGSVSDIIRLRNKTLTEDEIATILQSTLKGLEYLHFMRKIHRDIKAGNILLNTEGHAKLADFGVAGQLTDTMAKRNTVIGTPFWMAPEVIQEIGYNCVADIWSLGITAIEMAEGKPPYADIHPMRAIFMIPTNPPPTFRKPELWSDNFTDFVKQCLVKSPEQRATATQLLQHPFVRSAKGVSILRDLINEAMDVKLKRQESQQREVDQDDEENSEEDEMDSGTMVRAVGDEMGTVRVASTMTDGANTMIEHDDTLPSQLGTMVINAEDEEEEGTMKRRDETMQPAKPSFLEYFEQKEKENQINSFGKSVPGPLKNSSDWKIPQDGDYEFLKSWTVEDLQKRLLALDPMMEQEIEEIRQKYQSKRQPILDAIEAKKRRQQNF

[7] = target: T2, panel of 255 wild-type kinases (Homo sapiens, UniProt P51955); conditions: NEK2, 1 µmol/L single concentration, cited from earlier work
T2 sequence (P51955 1-445): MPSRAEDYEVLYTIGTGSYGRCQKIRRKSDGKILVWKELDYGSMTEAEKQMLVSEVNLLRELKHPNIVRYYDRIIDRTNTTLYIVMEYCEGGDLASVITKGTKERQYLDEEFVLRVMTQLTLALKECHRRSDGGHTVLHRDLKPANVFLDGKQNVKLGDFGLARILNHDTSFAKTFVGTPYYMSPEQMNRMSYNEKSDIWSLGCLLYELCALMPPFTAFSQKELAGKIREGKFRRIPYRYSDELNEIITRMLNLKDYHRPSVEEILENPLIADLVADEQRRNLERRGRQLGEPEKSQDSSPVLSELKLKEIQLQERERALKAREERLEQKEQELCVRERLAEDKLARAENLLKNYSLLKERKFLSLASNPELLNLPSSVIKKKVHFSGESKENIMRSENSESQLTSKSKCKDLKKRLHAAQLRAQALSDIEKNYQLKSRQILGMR

[8] = target: T3, panel of 255 wild-type kinases (Homo sapiens, UniProt Q92630); conditions: kinase DYRK2, 1 µmol/L single concentration, cited from earlier work
T3 sequence (Q92630 1-601): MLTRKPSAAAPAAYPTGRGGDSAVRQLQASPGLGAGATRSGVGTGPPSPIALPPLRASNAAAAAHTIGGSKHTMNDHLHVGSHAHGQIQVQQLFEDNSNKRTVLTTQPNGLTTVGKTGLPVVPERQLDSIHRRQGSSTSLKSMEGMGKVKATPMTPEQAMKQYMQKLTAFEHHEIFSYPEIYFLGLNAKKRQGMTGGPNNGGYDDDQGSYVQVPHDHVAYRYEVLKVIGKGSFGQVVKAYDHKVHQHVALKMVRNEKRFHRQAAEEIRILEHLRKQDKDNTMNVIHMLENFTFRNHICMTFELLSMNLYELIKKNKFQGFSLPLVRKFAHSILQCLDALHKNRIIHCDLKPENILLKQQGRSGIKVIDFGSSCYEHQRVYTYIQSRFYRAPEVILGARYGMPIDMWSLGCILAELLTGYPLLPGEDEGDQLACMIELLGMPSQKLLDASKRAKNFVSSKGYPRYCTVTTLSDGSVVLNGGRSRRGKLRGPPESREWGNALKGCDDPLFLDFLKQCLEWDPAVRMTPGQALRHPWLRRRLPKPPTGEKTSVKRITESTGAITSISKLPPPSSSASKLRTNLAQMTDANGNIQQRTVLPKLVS

[9] = target: panel of 255 wild-type kinases (Homo sapiens, UniProt P12931); conditions: kinase SRC, 1 µmol/L single concentration, cited from earlier work
[10] = ref DOI: 10.1158/1535-7163.MCT-18-0877
[11] = ref DOI: 10.1371/journal.pone.0092146

| SMILES | %-inhibition at 1 µmol/L, PKN1 [1, 10] [%] | %-inhibition at 1 µmol/L, skMLCK [2, 10] [%] | %-inhibition at 1 µmol/L, SRPK1 [3, 10] [%] | %-inhibition CDK7/CycH/MAT1 [4, 10] [%] | %-inhibition CaMK2γ [5, 10] [%] | %-inhibition, MST1 [6, 10] [%] | %-inhibition, NEK2 [7, 10] [%] | %-inhibition at 1 µmol/L, DYRK2 [8, 10] [%] | %-inhibition at 1 µmol/L, PKN1 [1, 11] [%] | %-inhibition at 1 µmol/L, skMLCK [2, 11] [%] | %-inhibition at 1 µmol/L, SRPK1 [3, 11] [%] | %-inhibition CDK7/CycH/MAT1 [4, 11] [%] | %-inhibition CaMK2γ [5, 11] [%] | %-inhibition, MST1 [6, 11] [%] | %-inhibition at 1 µmol/L, SRC [9, 11] [%] | %-inhibition, NEK2 [7, 11] [%] | %-inhibition at 1 µmol/L, DYRK2 [8, 11] [%] | %-inhibition at 1 µmol/L, SRC [9, 10] [%] |
| --- | --- | --- | --- | --- | --- | --- | --- | --- | --- | --- | --- | --- | --- | --- | --- | --- | --- | --- |
| C=CC(=O)N1CCC[C@@H](n2nc(-c3ccc(Oc4ccccc4)cc3)c3c(N)ncnc32)C1 [ibrutinib] | 9 | -17 | 1.2 | 5 | -1.83 | 4 | 6.64 | -1.83 | – | – | – | – | – | – | – | – | – | – |
| CC(=O)Nc1cccc(-n2c(=O)n(C3CC3)c(=O)c3c(Nc4ccc(I)cc4F)n(C)c(=O)c(C)c32)c1 [trametinib] | – | – | – | – | – | – | – | – | 3.71 | -3.34 | -0.0691 | -6 | 7 | -3.74 | -5.4 | 2.76 | -0.0865 | – |
| Cc1cc(Nc2ncc(Cl)c(Nc3ccccc3S(=O)(=O)C(C)C)n2)c(OC(C)C)cc1C1CCNCC1 [ceritinib] | 25 | -9 | – | 45 | 32 | 17 | 2 | 6.41 | – | – | – | – | – | – | – | – | – | 9 |
| C[C@@H](Oc1cc(-c2cnn(C3CCNCC3)c2)cnc1N)c1c(Cl)ccc(F)c1Cl [crizotinib] | – | – | – | – | – | – | – | – | 23 | – | 4.55 | 58 | -10 | 83 | – | -2.69 | 10 | – |
| C=CC(=O)Nc1cc(Nc2nccc(-c3cn(C)c4ccccc34)n2)c(OC)cc1N(C)CCN(C)C [osimertinib] | 14 | -4 | -9 | 8.57 | 4.25 | 1.52 | 8 | 45 | – | – | – | – | – | – | – | – | – | 9 |
| CCCS(=O)(=O)Nc1ccc(F)c(C(=O)c2c[nH]c3ncc(-c4ccc(Cl)cc4)cc23)c1F [vemurafenib] | – | – | – | – | – | – | – | – | -0.378 | 53 | 2 | 0.137 | -10 | 51 | 52 | -1 | 1 | – |
| O=C(c1ccc(F)c(F)c1Nc1ccc(I)cc1F)N1CC(O)([C@@H]2CCCCN2)C1 [cobimetinib] | 19 | -10 | -11 | 6 | -2.31 | -9 | 6.62 | -2.74 | – | – | – | – | – | – | – | – | – | 6.45 |
| CC(C)(C)c1nc(-c2cccc(NS(=O)(=O)c3c(F)cccc3F)c2F)c(-c2ccnc(N)n2)s1 [dabrafenib] | – | – | – | – | – | – | – | – | -2.84 | 0.52 | – | – | -5.47 | – | 68 | – | 6 | – |
| CO[C@@H]1[C@H](N(C)C(=O)c2ccccc2)C[C@H]2O[C@]1(C)n1c3ccccc3c3c4c(c5c6ccccc6n2c5c31)C(=O)NC4 [midostaurin] | – | 0.93 | 1.28 | 10 | – | – | 0.207 | – | – | – | – | – | – | – | – | – | – | 79 |
| CC#CC(=O)N1CCC[C@H]1c1nc(-c2ccc(C(=O)Nc3ccccn3)cc2)c2c(N)nccn12 [acalabrutinib] | 11 | -17 | -4.73 | 5 | -1.85 | 4 | -6.35 | -16 | – | – | – | – | – | – | – | – | – | 10 |
